Consider 1 compound from publication PMC12470104, “The Achilles Heel of Protein Biochemistry: Insolubility of Recombinant Proteins—A Case Study About Producing a Rice Enzyme” (International Journal of Molecular Sciences, 2025).

The structures appear in SMILES notation.

The term Km denotes the substrate concentration at which the rate is half of its maximum.

This assay deals with T1, OsAPSE.
T1 construct: GH27 42-387, ricin-B-like 498-563, GH-all-beta 563-649; catalytic D226, D282
Description: discontinuous pNP release assay, A405; Hanes-Woolf and Eadie-Hofstee. In kind it is biochemical, Oryza sativa subsp. japonica. The conditions noted are these: 50 mM Tris-HCl pH 8, 25 °C; 50 µg/mL enzyme; protein refolded from inclusion bodies (authors suspect suboptimal folding); 1-20 mM substrate, Km extrapolated above tested range.

Take `O=[N+]([O-])c1ccc(O[C@H]2O[C@H](CO)[C@H](O)[C@H](O)[C@H]2O)cc1` [pNP-α-D-Galp]: the Km was 44 mM.
